According to patent publication US6737383B1, “Herbicidal oxadiazolidines” (priority 1999, dated 2004):

Key:
cocklebur = test: Test B pre/postemergence cocklebur; format: in vivo, Xanthium strumarium
Summary of the method: (§1)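 Herbicidal effect was estimated by eye on a ten-point control scale after plants spent twelve to sixteen days in a greenhouse following soil or foliar treatment. Foliar sprays targeted plants at one to four leaves; all doses were formulated in a non-phytotoxic solvent with surfactant.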

soybean = test: Test B pre/postemergence soybean; format: in vivo, Glycine max
Summary of the method: as §1

velvetleaf = test: Test B pre/postemergence velvetleaf; format: in vivo, Abutilon theophrasti
Summary of the method: as §1

duck salad = test: Test B flood test duck salad; format: in vivo, Heteranthera limosa
Summary of the method: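 Plants were grown to the 2-leaf stage before treatment with test chemical, then held in a greenhouse for twelve to sixteen days. Injury was visually rated against untreated controls on a 0–10 scale, where 0 is no effect and 10 is complete control.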

winter wheat [1] = test: Test E winter wheat; format: in vivo, Triticum aestivum; settings: Postemergence; for Plant response rating, Wheat (winter): 0 to 100 scale
Summary of the method: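 Postemergence: spray at 1–4 leaf stage, soil 60:40 sandy loam:potting mix; solvent + surfactant formulation; greenhouse 21–28 d; visual injury vs untreated controls.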

blackgrass = test: Test E blackgrass; format: in vivo, Alopecurus myosuroides; settings: Preemergence
green foxtail = test: Test E green foxtail; format: in vivo, Setaria viridis; settings: Preemergence
Italian ryegrass = test: Test E Italian ryegrass; format: in vivo, Lolium multiflorum; settings: Preemergence
winter wheat [2] = test: Test E winter wheat; format: in vivo, Triticum aestivum; settings: Preemergence
wild oat = test: Test E wild oat; format: in vivo, Avena fatua; settings: Preemergence
winter barley = test: Test E winter barley; format: in vivo, Hordeum vulgare; settings: Preemergence
[3] = Preemergence, Rate 62 g/ha, scale of 0 to 10 where 0 is no effect and 10 is complete control
[4] = Preemergence, Rate 250 g/ha, scale of 0 to 10 where 0 is no effect and 10 is complete control
[5] = Preemergence, Rate 500 g/ha, scale of 0 to 10 where 0 is no effect and 10 is complete control
[6] = Rate 62 g/ha, Postemergence, scale 0 to 10 (0 no effect, 10 complete control)
[7] = Rate 125 g/ha, Postemergence, scale of 0 to 10 where 0 is no effect and 10 is complete control
[8] = Rate 250 g/ha, Postemergence, scale of 0 to 10 where 0 is no effect and 10 is complete control
[9] = Rate 500 g/ha, Postemergence, scale 0 to 10, 0 no effect, 10 complete control
[10] = Rate 62 g/ha, headed Pre-emergence (flood test species), scale 0 to 10 (0 no effect, 10 complete control)
[11] = Rate 125 g/ha, Pre-emergence, flood test species, scale 0 to 10 where 0 is no effect and 10 is complete control
[12] = Rate 250 g/ha, Pre-emergence, flood-test species, scale 0 to 10, 0 is no effect, 10 is complete control
[13] = Rate 500 g/ha, Pre-emergence, flood test species, scale 0 to 10 (0 no effect, 10 complete control)
[14] = Rate 125 g/ha, 0 is no effect, 100 is complete control
[15] = Rate 62 g/ha, 0 to 100 scale, 0 no effect, 100 complete control
[16] = Rate 125 g/ha, 0 to 100 scale (0 no effect, 100 complete control)
[17] = Preemergence, Rate 125 g/ha, 0 is no effect, 10 is complete control
[18] = Preemergence, Rate 250 g/ha, scale 0 to 10, 0 is no effect, 10 is complete control
[19] = Preemergence, Rate 500 g/ha, scale 0 to 10 (0 no effect, 10 complete control)
[20] = Rate 62 g/ha, Postemergence, scale of 0 to 10 where 0 is no effect and 10 is complete control
[21] = Rate 125 g/ha, Postemergence, scale 0 to 10
[22] = Rate 500 g/ha, Postemergence, scale 0 to 10
[23] = Rate 500 g/ha, 0 to 100 scale where 0 is no effect and 100 is complete control
[24] = Preemergence, Rate 31 g/ha, visual rating, scale 0 to 10 (0 no effect, 10 complete control)
[25] = Rate 125 g/ha, Preemergence, scale of 0 to 10 where 0 is no effect and 10 is complete control
[26] = Rate 31 g/ha, 0 to 100 scale, 0 no effect, 100 complete control

CC(C)N(C(=O)n1oc(=O)n(C2CCOCC2)c1=O)c1ccc(F)cc1 [Compound 310]
Cocklebur plant response rating (cocklebur; [3]): 0 | Cocklebur plant response rating (0 to 10 scale) (cocklebur; Preemergence, Rate 125 g/ha): 0 | Cocklebur plant response rating (cocklebur; [4]): 2 | Cocklebur plant response rating (cocklebur; [5]): 4 | Cocklebur plant response rating (cocklebur; [6]): 0 | Cocklebur plant response rating (cocklebur; [7]): 0 | Plant response rating, Cocklebur (cocklebur; [8]): 2 | Cocklebur plant response rating (cocklebur; [9]): 7 | Soybean plant response rating (soybean; [3]): 0 | Soybean plant response rating (0 to 10 scale) (soybean; Preemergence, Rate 125 g/ha): 0 | Soybean plant response rating (soybean; [4]): 2 | Soybean plant response rating (soybean; [5]): 5 | Soybean plant response rating (soybean; [6]): 4 | Soybean plant response rating (soybean; [7]): 4 | Plant response rating, Soybean (soybean; [8]): 4 | Velvetleaf plant response rating (velvetleaf; [3]): 2 | Velvetleaf plant response rating (0 to 10 scale) (velvetleaf; Preemergence, Rate 125 g/ha): 3 | Velvetleaf plant response rating (velvetleaf; [4]): 7 | Velvetleaf plant response rating (velvetleaf; [5]): 8 | Velvetleaf plant response rating (velvetleaf; [6]): 2 | Velvetleaf plant response rating (velvetleaf; [7]): 3 | Plant response rating, Velvetleaf (velvetleaf; [8]): 4 | Ducksalad plant response rating (duck salad; Pre-emergence, Rate 1000 g/ha, scale 0 to 10 (0 no effect, 10 complete control)): 0 | Ducksalad plant response rating (duck salad; [10]): 0 | Ducksalad plant response rating (duck salad; [11]): 0 | Ducksalad plant response rating (duck salad; [12]): 0 | Ducksalad plant response rating (duck salad; [13]): 3 | Plant response rating, Wheat (winter) (winter wheat [1]; Rate 62 g/ha): 75 | Plant response rating, Wheat (winter) (winter wheat [1]; [14]): 80 | Plant response rating, Wheat (winter) (winter wheat [1]; Rate 250 g/ha, 0 is no effect, 100 is complete control): 80 | Plant response rating, Blackgrass (blackgrass; [15]): 85 | Plant response rating, Blackgrass (blackgrass; [16]): 85 | Plant response rating, Blackgrass (blackgrass; Rate 250 g/ha, 0 to 100 scale): 85 | Plant response rating, Green foxtail (green foxtail; [15]): 100 | Plant response rating, Green foxtail (green foxtail; [16]): 100 | Plant response rating, Green foxtail (green foxtail; Rate 250 g/ha, 0 to 100 scale): 100 | Plant response rating, I. Ryegrass (Italian ryegrass; [15]): 70 | Plant response rating, I. Ryegrass (Italian ryegrass; [16]): 70 | Plant response rating, I. Ryegrass (Italian ryegrass; Rate 250 g/ha, 0 to 100 scale): 70 | Plant response rating, Wheat (winter) (winter wheat [2]; [15]): 60 | Plant response rating, Wheat (winter) (winter wheat [2]; [16]): 40 | Plant response rating, Wheat (winter) (winter wheat [2]; Rate 250 g/ha, 0 to 100 scale): 70 | Plant response rating, Wild oat (wild oat; [15]): 70 | Plant response rating, Wild oat (wild oat; [16]): 50 | Plant response rating, Wild oat (wild oat; Rate 250 g/ha, 0 to 100 scale): 70 | Plant response rating, Barley (winter) (winter barley; [15]): 50 | Plant response rating, Barley (winter) (winter barley; [16]): 60 | Plant response rating, Barley (winter) (winter barley; Rate 250 g/ha, 0 to 100 scale, 0 no effect, 100 complete control): 70

Cc1nc(C)c(Cn2c(=O)on(C(=O)N(c3ccc(F)cc3)C(C)C)c2=O)s1 [Compound 192]
Cocklebur plant response rating (cocklebur; [3]): 0 | Cocklebur plant response rating (0 to 10 scale) (cocklebur; [17]): 0 | Cocklebur plant response rating (cocklebur; [18]): 0 | Cocklebur plant response rating (cocklebur; [19]): 0 | Cocklebur plant response rating (cocklebur; [20]): 0 | Cocklebur plant response rating (cocklebur; [21]): 1 | Plant response rating (0 to 10; 0 is no effect, 10 is complete control), Cocklebur (cocklebur; Rate 250 g/ha, Postemergence): 2 | Cocklebur plant response rating (cocklebur; [22]): 5 | Soybean plant response rating (soybean; [3]): 0 | Soybean plant response rating (0 to 10 scale) (soybean; [17]): 0 | Soybean plant response rating (soybean; [18]): 2 | Soybean plant response rating (soybean; [19]): 2 | Soybean plant response rating (soybean; [20]): 3 | Soybean plant response rating (soybean; [21]): 3 | Plant response rating (0 to 10; 0 is no effect, 10 is complete control), Soybean (soybean; Rate 250 g/ha, Postemergence): 3 | Soybean plant response rating (soybean; [22]): 3 | Velvetleaf plant response rating (velvetleaf; [3]): 0 | Velvetleaf plant response rating (velvetleaf; [18]): 5 | Velvetleaf plant response rating (velvetleaf; [19]): 6 | Velvetleaf plant response rating (velvetleaf; [20]): 0 | Velvetleaf plant response rating (velvetleaf; [21]): 2 | Plant response rating (0 to 10; 0 is no effect, 10 is complete control), Velvetleaf (velvetleaf; Rate 250 g/ha, Postemergence): 3 | Ducksalad plant response rating (duck salad; [10]): 0 | Ducksalad plant response rating (duck salad; [11]): 0 | Ducksalad plant response rating (duck salad; [12]): 0 | Plant response rating, Ducksalad (duck salad; Rate 500 g/ha, headed Pre-emergence (flood test species), scale 0 to 10 (0 no effect, 10 complete control)): 0 | Plant response rating, Wheat (winter) (winter wheat [1]; Rate 125 g/ha): 30 | Plant response rating, Wheat (winter) (winter wheat [1]; Rate 500 g/ha, 0 is no effect, 100 is complete control): 50 | Plant response rating, Blackgrass (blackgrass; [16]): 40 | Plant response rating, Blackgrass (blackgrass; [23]): 50 | Plant response rating, Green foxtail (green foxtail; [16]): 50 | Plant response rating, Green foxtail (green foxtail; [23]): 65 | Plant response rating, I. Ryegrass (Italian ryegrass; [16]): 20 | Plant response rating, I. Ryegrass (Italian ryegrass; [23]): 60 | Plant response rating, Wheat (winter) (winter wheat [2]; [16]): 10 | Plant response rating, Wheat (winter) (winter wheat [2]; [23]): 40 | Plant response rating, Wild oat (wild oat; [16]): 30 | Plant response rating, Wild oat (wild oat; [23]): 55 | Plant response rating, Barley (winter) (winter barley; [16]): 20 | Plant response rating, Barley (winter) (winter barley; [23]): 30

CC(C)N(C(=O)n1oc(=O)n(N(C)C)c1=O)c1ccccc1 [Compound 225]
Cocklebur plant response rating (cocklebur; [24]): 0 | Cocklebur plant response rating (cocklebur; [3]): 0 | Cocklebur plant response rating (cocklebur; [4]): 2 | Plant response rating, Cocklebur (cocklebur; [5]): 2 | Cocklebur plant response rating (cocklebur; Rate 31 g/ha, Postemergence, scale 0 to 10): 0 | Cocklebur plant response rating (cocklebur; [20]): 0 | Cocklebur plant response rating (cocklebur; [21]): 0 | Cocklebur plant response rating (cocklebur; [25]): 2 | Plant response rating (0 to 10; 0 is no effect, 10 is complete control), Cocklebur (cocklebur; Rate 250 g/ha, Postemergence): 0 | Cocklebur plant response rating (cocklebur; [9]): 0 | Soybean plant response rating (soybean; [24]): 0 | Soybean plant response rating (soybean; [3]): 0 | Soybean plant response rating (soybean; [4]): 3 | Plant response rating, Soybean (soybean; [5]): 6 | Soybean plant response rating (soybean; [20]): 2 | Soybean plant response rating (soybean; [21]): 3 | Soybean plant response rating (soybean; [25]): 2 | Plant response rating (0 to 10; 0 is no effect, 10 is complete control), Soybean (soybean; Rate 250 g/ha, Postemergence): 5 | Soybean plant response rating (soybean; [9]): 4 | Velvetleaf plant response rating (velvetleaf; [24]): 0 | Velvetleaf plant response rating (velvetleaf; [3]): 4 | Velvetleaf plant response rating (velvetleaf; [4]): 6 | Plant response rating, Velvetleaf (velvetleaf; [5]): 7 | Velvetleaf plant response rating (velvetleaf; [20]): 0 | Velvetleaf plant response rating (velvetleaf; [21]): 0 | Velvetleaf plant response rating (velvetleaf; [25]): 5 | Plant response rating (0 to 10; 0 is no effect, 10 is complete control), Velvetleaf (velvetleaf; Rate 250 g/ha, Postemergence): 0 | Velvetleaf plant response rating (velvetleaf; [9]): 3 | Ducksalad plant response rating (duck salad; [10]): 0 | Ducksalad plant response rating (duck salad; [11]): 0 | Ducksalad plant response rating (duck salad; [12]): 0 | Ducksalad plant response rating (duck salad; [13]): 0 | Plant response rating, Wheat (winter) (winter wheat [1]; Rate 31 g/ha, 0 no effect, 100 complete control): 50 | Plant response rating, Wheat (winter) (winter wheat [1]; Rate 62 g/ha): 60 | Plant response rating, Wheat (winter) (winter wheat [1]; [14]): 75 | Wheat (winter) plant response rating (winter wheat [1]; Rate 250 g/ha, 0 to 100 scale where 0 is no effect and 100 is complete control): 70 | Plant response rating, Blackgrass (blackgrass; [26]): 30 | Plant response rating, Blackgrass (blackgrass; [15]): 50 | Plant response rating, Blackgrass (blackgrass; [16]): 60 | Blackgrass plant response rating (0 to 100 scale) (blackgrass; Rate 250 g/ha): 80 | Plant response rating, Green foxtail (green foxtail; [26]): 30 | Plant response rating, Green foxtail (green foxtail; [15]): 60 | Plant response rating, Green foxtail (green foxtail; [16]): 50 | Green foxtail plant response rating (0 to 100 scale) (green foxtail; Rate 250 g/ha): 60 | Plant response rating, I. Ryegrass (Italian ryegrass; [26]): 20 | Plant response rating, I. Ryegrass (Italian ryegrass; [15]): 30 | Plant response rating, I. Ryegrass (Italian ryegrass; [16]): 50 | I. Ryegrass plant response rating (0 to 100 scale) (Italian ryegrass; Rate 250 g/ha): 90 | Plant response rating, Wheat (winter) (winter wheat [2]; [26]): 10 | Plant response rating, Wheat (winter) (winter wheat [2]; [15]): 30 | Plant response rating, Wheat (winter) (winter wheat [2]; [16]): 65 | Wheat (winter) plant response rating (0 to 100 scale) (winter wheat [2]; Rate 250 g/ha): 70 | Plant response rating, Wild oat (wild oat; [26]): 30 | Plant response rating, Wild oat (wild oat; [15]): 40 | Plant response rating, Wild oat (wild oat; [16]): 50 | Wild oat plant response rating (0 to 100 scale) (wild oat; Rate 250 g/ha): 60 | Plant response rating, Barley (winter) (winter barley; [26]): 0 | Plant response rating, Barley (winter) (winter barley; [15]): 50 | Plant response rating, Barley (winter) (winter barley; [16]): 50 | Barley (winter) plant response rating (0 to 100 scale) (winter barley; Rate 250 g/ha): 60
